# Earlier results in PMC4303307 (Biochemistry, 2014).
# Where no end group is shown, it is not given here.
# System: γ-crystallin
# Conditions: cited from earlier work
substance,measurement,setting,value
"MAC peptide with an acetylated Lys 70: the MAC peptide with an acetylated Lys 70 used by Nahomi et al. (K(Ac)FVIFLDVKHFSPEDLTVK; UniProt P02489 70-88, looked up, fragment)",chaperone activity of acetylated Lys vs Asp at the N-terminal end,,enhanced chaperone activity
same,increase of chaperone activity over nonacetylated peptide,"in vitro, γ-crystallin substrate",~15%
